Source: patent US5977144A (priority 1997, dated 1999)
Entries after “also recorded” stand apart in the source; their conditions may differ. Where two headings read alike, the source gives them in different places.

Legend:
[1] = test system: rat; test: Focal ischemia infarct size in rats; format: in vivo
Description: FIG. 3. […] Rats received a 30 minute ischemia attack through tying of their common carotid; the amount of cell death (proportional to Infarct Size) was determined 24 hours later. Some animals received the benzylidene-anabaseine compound DMXB (1 mg/kg IP, salt weight) 1 hour before ligation, or the nicotinic antagonist mecamylamine (0.5 mg/kg IP), or both mecamylamine and DMXB, or DMXB 5 minutes after the ligation.
Male Sprague Dawley albino male rats (250-300 g) were anesthetized with a subcutaneous injection of ketamine, xylazine, and acepromazine (3:3:1 mixture, 0.7 cc/kg). Atropine (0.4 mg/kg IP) was injected several min prior to dissection of the carotid artery from the vagus. The internal carotid artery (ICA) was dissected until its proximal bifurcation into the terminal ICA and pterygopalatine arteries were clearly defined. The pterygopalatine artery was clipped parallel to and flush with the terminal ICA. Another clip was applied to the common carotid artery (CCA). The distal aspect of the external carotid artery (ECA) was coagulated and a straight aneurysm clip was applied 4 mm distal to the proximal ICA bifurcation. A suture was passed through the arteriotomized ECA stump into the ICA until the tip was resting against the aneurysm clip. The suture was removed 30 min later, with body temperature maintained between 36.5-37.5° C. The ECA stump was coagulated with bipolar electrocautery. Clips were removed and the wound was irrigated with saline prior to suturing.
Rats were euthanised 24 hours post-infarction and their brains removed and sectioned coronally (2 mm). Sections were placed into a 2% solution of 2,3,5-triphyenyl-tetrazolium cholide (Sigma Chemical Co., St. Louis. Mo.) for 20 minutes at 37° C. The sections were removed to a petri dish and covered with 10% formaldehyde solution. The outline function of the NIH Image computer program (version 1.47) was used to estimate the infarcted and total brain areas for each section. Infarct size was calculated as percent of total brain area.

[2] = test system: NMDA receptor; test: High affinity [3H]MK801 binding to rat brain membranes; details: concentrations up to 30 μM
[3] = test system: rat primary neocortical neurons; format: cell-based
[4] = target: rat alpha7 receptor (Rattus norvegicus, UniProt Q05941); details: cited from earlier work
Chain of rat alpha7 receptor (Q05941 23-502): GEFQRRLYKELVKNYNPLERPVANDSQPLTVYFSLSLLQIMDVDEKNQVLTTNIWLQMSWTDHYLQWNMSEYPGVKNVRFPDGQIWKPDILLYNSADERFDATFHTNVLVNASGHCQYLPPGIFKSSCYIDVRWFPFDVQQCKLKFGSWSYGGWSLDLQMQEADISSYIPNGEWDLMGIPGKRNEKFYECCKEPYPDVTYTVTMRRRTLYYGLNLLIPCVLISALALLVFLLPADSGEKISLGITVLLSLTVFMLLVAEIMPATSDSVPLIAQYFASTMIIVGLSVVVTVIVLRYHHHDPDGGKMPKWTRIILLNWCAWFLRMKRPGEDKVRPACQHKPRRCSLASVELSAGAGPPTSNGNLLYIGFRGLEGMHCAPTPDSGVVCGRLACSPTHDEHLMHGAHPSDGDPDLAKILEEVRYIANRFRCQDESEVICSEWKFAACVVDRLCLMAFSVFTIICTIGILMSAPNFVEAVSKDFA

[5] = test system: rat; details: in vivo
Description: Eleven male Sprague-Dawley rats were first trained to press the left lever in a two lever operant conditioning chamber. They had limited access to food for 23 hours prior to the first training session and then received 20 grams of food for the remainder of the study. Once subjects reliably pressed the left lever, a catheter was surgically implanted into the right jugular vein. The catheter consisted of three separate pieces of tubing, a 37 mm length of silicon rubber tubing which entered the circulatory system (Silastic Medical Grade tubing), a 65 mm length of polyethylene tubing (Intramedic, PE10) and a 170 mm length of polyethylene tubing with the same internal diameter (Intramedic, PE20). The catheter exited between the scapulae and could be hooked up to a swivel which itself was connected to a pneumatic syringe. […] Once subjects had recovered from surgery they were trained to complete a fixed ratio 2 schedule (FR 2) to activate the pneumatic syringe. […] Each daily experimental session lasted 50 minutes. After several sessions under these conditions, subjects received an intraperitoneal (IP) injection of physiological saline (1 ml/kg), 15 min prior to the start of the self-administration session. The next day subjects were IP injected with 8 mg/kg of GTS-21, also 15 minutes before the beginning of the session.

[6] = test system: animal models of learning and memory; details: animals; cited from earlier work
[7] = test system: rat; details: adult rat
[8] = test system: PC12 cells; details: Martin et al., 1994, cited from earlier work
[9] = test system: rat primary neocortical neurons; details: Shimohama et al., in press; cited from earlier work
[10] = test system: nucleus basalis lesioned rats; test: Passive avoidance behavior in nucleus basalis lesioned rats; format: in vivo, rat; details: for passive avoidance behavior (in words): nucleus basalis lesioned rats
Description: Passive avoidance behavior was measured in nucleus basalis lesioned rats after intraperitoneal (IP) injections of drugs (base weight) or 0.9% saline diluent. For lesions, male 5 month old Sprague Dawley rats were anesthetized with 30 mg/kg sodium pentobarbital (IP) and then infused bilaterally with 1 μl of 5 μg/μl ibotenic acid in phosphate buffered saline, pH 7.4, into the nucleus basalis as described previously (17). Infusion coordinates were anterior 7.0 mm, lateral 2.6 mm and vertical 6.5 mm according to Paxinos and Watson (Paxinos and Watson, 1986).
Following surgery, animals were returned to their individual home cages and fed semi-solid mash made from Purina Rat Chow for several days. One month later, animals were trained in a two chamber passive avoidance paradigm. Fifteen min after IP drug injection, they were placed in the lit compartment, and allowed to enter the dark adjoining chamber. Animals that entered the second chamber received a mild foot shock (0.8 mA) for 1 sec. Rats were tested for latency 24 hr later for up to 5 min; this test also began 15 min after injection. Statistical analyses utilized rank order nonparametric comparisons of latencies.

[11] = target: rat alpha4beta2 receptor (Rattus norvegicus, UniProt P09483+P12390); test: Activation of alpha4beta2 receptors expressed in Xenopus oocytes; format: cell-based; details: read-out: alpha4beta2 activation: % response observed with 10 μM acetylcholine
Chain of rat alpha4beta2 receptor (P09483 31-630): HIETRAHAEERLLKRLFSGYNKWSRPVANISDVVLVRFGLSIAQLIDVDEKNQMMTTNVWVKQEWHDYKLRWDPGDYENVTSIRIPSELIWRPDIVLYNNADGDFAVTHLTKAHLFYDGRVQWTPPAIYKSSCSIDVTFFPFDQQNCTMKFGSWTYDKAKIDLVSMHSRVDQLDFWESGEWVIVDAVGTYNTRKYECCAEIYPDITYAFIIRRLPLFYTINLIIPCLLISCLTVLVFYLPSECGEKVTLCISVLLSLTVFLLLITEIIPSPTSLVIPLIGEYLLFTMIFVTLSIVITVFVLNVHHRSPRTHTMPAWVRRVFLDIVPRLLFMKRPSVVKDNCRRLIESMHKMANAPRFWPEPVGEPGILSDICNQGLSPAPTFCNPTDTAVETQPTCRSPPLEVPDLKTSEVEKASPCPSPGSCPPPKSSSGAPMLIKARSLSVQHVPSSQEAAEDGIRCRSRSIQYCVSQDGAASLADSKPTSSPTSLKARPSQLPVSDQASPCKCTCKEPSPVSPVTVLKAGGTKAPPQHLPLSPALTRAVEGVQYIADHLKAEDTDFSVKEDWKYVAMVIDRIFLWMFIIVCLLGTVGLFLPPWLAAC
Chain of rat alpha4beta2 receptor (P12390 25-500): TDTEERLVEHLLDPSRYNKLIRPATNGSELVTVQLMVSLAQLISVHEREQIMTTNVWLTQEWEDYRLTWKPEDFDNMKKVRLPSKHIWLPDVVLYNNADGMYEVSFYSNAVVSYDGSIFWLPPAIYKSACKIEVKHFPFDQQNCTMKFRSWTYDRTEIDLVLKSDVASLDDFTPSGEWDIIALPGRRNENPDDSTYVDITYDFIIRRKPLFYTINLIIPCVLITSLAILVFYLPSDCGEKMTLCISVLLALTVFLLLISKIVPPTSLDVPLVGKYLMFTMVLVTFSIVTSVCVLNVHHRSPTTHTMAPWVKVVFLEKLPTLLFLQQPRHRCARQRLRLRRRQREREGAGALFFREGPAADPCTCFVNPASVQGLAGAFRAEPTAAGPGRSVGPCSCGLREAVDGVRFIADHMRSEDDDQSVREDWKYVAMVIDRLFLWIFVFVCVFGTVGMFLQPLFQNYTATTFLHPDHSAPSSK

[12] = test system: PC12 cells; format: cell-based
Description: PC12 cell-culture methods were modified from Greene and Tischler (1976). Cells were plated at 30-40% confluence and grown in Dulbecco's Modified Eagle Medium containing 10% heat-inactivated horse serum, 5% fetal bovine serum, 100 units/ml penicillin, 100 μg/ml streptomycin and 0.5 mM 1-glutamine. Cultures were maintained at 37° C., […] /6% CO2 and 90-92% humidity in culture plates pre-coated with poly-1lysine (10 g/L). Cultures were maintained for 7 days in serum-supplemented medium to which 100 ng/ml rat 2.5S NGF was added at day 1. On day 7, conditioned medium was replaced serum-free medium containing specified drugs. Four days later, cell density was estimated using the NIH Image program version 1.47 and number of neurite-expressing cells counted manually in blind fashion as described previously (Martin et al., 1994). A Nikon inverted microscope (100× magnification) was attached to a Mac II computer via a monochrome video camera (Cohu, Inc., San Diego, Calif.). Four random areas were counted per plate and there were 4 plates per treatment group, unless otherwise indicated. Neurites were defined as processes at least 2× the length of the perikaryon. To assess the reliability of the image analyses, a reticle was used for direct quantification of cells in the same view as the one analyzed in random samples.
PC12 cells were differentiated for 1 week with NGF. Drugs were administered for the 4 day interval after removal of serum and NGF. Neuites were counted and expressed as the mean±SEM of at least 3 plates/group.

Q: For COc1ccc(/C=C2\CCCN=C2c2cccnc2)c(OC)c1 [DMXB, 3-(2,4-Dimethoxybenzylidene) anabaseine], which “protection against infarct / cell loss, given before ischemia (in words)” value ([1]; 1 mg/kg IP before ischemia) is on record?
A: The value was “protected principally in the posterior infarct area; also recorded: protected against cell loss; also recorded: did not have as much cell loss”.

Q: And the “infarct size (mean value)” value ([1]; coronal section 5 mm posterior to frontal pole, saline 28%)?
A: Its value is 19%.

Q: What about the “protection against infarct, given during or after start of ischemia (in words)” value ([1]; during 30 min ischemic insult) of the same molecule?
A: The value was “ineffective”.

Q: What about the “interference with high affinity [3H]MK801 binding (in words)” value [2] of the same molecule?
A: The value was “did not interfere”.

Q: What about the “protection against glutamate, concomitant (in words)” value ([3]; 10 μM, with 1 mM glutamate) of the same molecule?
A: The value was “not observed when administered concomitantly with glutamate”.

Q: And the “protection against NMDA receptor-mediated toxicity (in words)” value ([3]; 24 hr prior to glutamate or NMDA)?
A: The value was “protects rat primary neocortical neurons against NMDA-receptor mediated excitotoxicity; also recorded: protected against NMDA receptor-mediated toxicity”.

Q: And the “effect on kainate-induced neurotoxicity (in words)” value ([3]; kainate)?
A: The value was “no effect”.

Q: What about the “α7 agonist activity (in words)” value ([4]; background/literature) of the same molecule?
A: The value was “weak partial agonist activity”.

Q: What about the “selectivity α7 over α4β2 / other nicotinic subtypes (in words)” value ([4]; literature) of the same molecule?
A: The value was “selective as an agonist for α7 versus other nicotinic receptor subtypes”.

Q: And the “activity of ACh at α7 receptors” value ([4]; partial agonist)?
A: Its value is “about 20%”.

Q: And the “nicotine self-administration (in words)” value [5]?
A: The value was “inhibits nicotine self-administration; also recorded: less likely to self-administer nicotine”.

Q: And the “memory-related performance (in words)” value [6]?
A: Its value is “enhances performance in several spatial and non-spatial memory-related paradigms in rats and rabbits”.

Q: What about the “spontaneous locomotor activity (in words)” value [7] of the same molecule?
A: The value was “without adversely affecting the animal's other functions, including its spontaneous locomotor activity”.

Q: What about the “activity against trophic factor deprivation in PC12 cells (in words)” value ([8]; listed as GTS 21) of the same molecule?
A: The value was “sufficient to reduce this neurotoxicity”.

Q: And the “activity against trophic factor deprivation in PC12 cells (in words)” value ([8]; listed as GTS-21)?
A: The value was “neuroprotective activity”.

Q: What about the “activity against NMDA-receptor activation (in words)” value [9] of the same molecule?
A: Its value is “neuroprotective activity”.

Q: Which “effective dose-response range, upper end” value ([10]; IP) does the source give for COc1ccccc1/C=C/C=C1\CCCN=C1c1cccnc1 [2-MeOCA, E,E-3-(2-Methoxycinnamylidene)anabaseine] here?
A: The value was “at least 3 mg/kg”.

Q: What about the “passive avoidance behavior (in words)” value ([10]; IP) of the same molecule?
A: Its value is “most potent”.

Q: And the “passive avoidance behavior (in words)” value ([10]; IP, listed as 2MeOCA)?
A: The value was “most potent performance-enhancing agent”.

Q: What about the “passive avoidance behavior (in words)” value ([10]; IP, listed as trans-3(2-methoxy-cinnamylidene) anabaseine) of the same molecule?
A: Its value is “less potent than the present compounds”.

Q: What about the “passive avoidance behavior (in words)” value ([10]; IP, listed as trans-3-(2-methoxycinnamylidene) anabaseine) of the same molecule?
A: Its value is “high potency”.

Q: What about the minimal effective dose ([10]; Rattus norvegicus, ip, read-out: effective dose-response range, lower end) of the same molecule?
A: Its minimal effective dose is less than 0.1 mg/kg.

Q: What about the Emax [11] of the same molecule?
A: Its Emax is less than 3%.

Q: What about the “neurite protection during NGF-deprivation (in words)” value ([12]; 10 μM) of the same molecule?
A: Its value is “Neither 2-MeOCA nor 4-MeOCA elicited neurite-protection”.

Q: And the “Neurite Counts” value ([12]; 10 μM (NGF 100 ng/ml), 4 days after removal of serum and NGF, mean±SEM, * p<0.05)?
A: Its value is 213 ± 26.
